Usually TGI stands for the concentration giving total growth inhibition. Read a high TGI as lower sensitivity of the cells. By GI50 is commonly meant the concentration that inhibits growth by half.

“And” between values parts separate entries of the source, which are not always exact repeats. Equal entries are not always repeated.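 Assay format: 96-well plates, 48-hour exposure. GI50 is the concentration that inhibits growth by half. TGI: total growth inhibition.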 Where a SMILES comes first, the peptide text is derived from it. The star is where a group is joined. Cbz = O=C(OCc1ccccc1)*; Boc = CC(C)(C)OC(=O)*; OSu = O=C1CCC(=O)N1O*; Bn = c1ccc(C*)cc1

Our source for the TGI and GI50 values is PubChem BioAssay (NCI).

Holding throughout (assay): DTP human tumour cell line panel, 48 h
Assay [1] has as its system HL-60(TB) leukemia.
Assay [2] has as its system SW-620 colon.
Assay [3] concerns T-47D breast.
Assay [4] has as its system NCI/ADR-RES ovarian.
Assay [5] deals with BT-549 breast.

As to `CC(NNC(=O)c1ccncc1)c1ccc(Cl)cc1Cl` (centres undefined), the TGI in assay [1], in assay [2], in assay [3], in assay [4] and in assay [5] was above 100 µM each time.
`COc1cccc(N=NN2CCCC2)c1`: the TGI in assay [1], in assay [2], in assay [3], in assay [4] and in assay [5] was above 100 µM each time.
As for `CC(=O)O[C@H]1C(=O)[C@@]2(C)[C@H]([C@H](OC(=O)c3ccco3)[C@]3(O)C[C@H](OC(=O)[C@H](O)[C@@H](NC(=O)c4ccccc4)c4ccccc4)C(C)=C1C3(C)C)[C@]1(OC(C)=O)CO[C@@H]1C[C@@H]2O`, the TGI in assay [1] was 0.123 µM; in assay [2], above 25 µM; in assay [3], above 25 µM; in assay [4], above 25 µM; in assay [5] it was above 25 µM.
With `O=C1C2CC[C@@H]3C(=O)C(Cl)(Cl)[C@@H]3CCC2C1(Cl)Cl` (some centres undefined), the total growth inhibition concentration (TGI) was 16.7 µM in assay [1]; above 100 µM in assay [2]; above 100 µM in assay [3]; above 100 µM in assay [4]; above 100 µM in assay [5].
In the case of `CCc1cc2c(c3c1CCCC3=O)CC1(C2)Cc2cc(CC)c3c(c2C1)C(=O)CCC3`, the TGI in assay [1], in assay [2], in assay [3] and in assay [4] was above 100 µM each time.
As to `c1ccc(-c2c(-c3[nH]c4ccccc4c3-c3ccccc3)[nH]c3ccccc23)cc1`, the TGI in assay [1] is 11.1 µM; in assay [2], 13.1 µM; in assay [3], 8.44 µM; in assay [4], 13.3 µM; in assay [5], 15 µM.
Take `C#CCOC(=O)C(=[N+]=[N-])C(=O)CC(C)C`: the TGI in assay [1], in assay [2], in assay [3], in assay [4] and in assay [5] was above 10 µM each time.
As for `C[n+]1c2ccccc2c(C(=O)Nc2ccc(S(=O)(=O)Nc3ncccn3)cc2)c2ccccc21`, the TGI in assay [2], in assay [3], in assay [4] and in assay [5] was above 100 µM in each case.
With `CC(C)(CN1CCCCC1)C(=O)CC(SCCS(=O)(=O)O)c1ccc(Cl)cc1` (centres undefined), the TGI in assay [1] was determined as 8.13 µM; in assay [2], 9.07 µM; in assay [4] it was 34 µM; in assay [5], 22.7 µM.
As to `COc1ccc2c(c1)CC[C@@H]1C2CC[C@]2(C)C(=C=CP(=O)(O)O)CCC12` (some centres undefined), the TGI in assay [2], in assay [3] and in assay [4] was above 100 µM throughout.
Turning to `CC(CC=O)Nc1nn2c(=O)c3ccccc3nc2s1` (centres undefined), the TGI in assay [2], in assay [3], in assay [4] and in assay [5] was above 100 µM throughout.
As to `COC1OC(C(=O)O)C2OC(C)(C)OC12` (centres undefined), the TGI in assay [2], in assay [4] and in assay [5] was above 100 µM in each case.
In the case of `CCOC(=O)C1C(c2ccc(OC)cc2)c2c([nH]n(-c3ccccc3)c2=O)CC1(C)O` (centres undefined), the TGI was 11.1 µM in assay [1], above 100 µM in assay [2], above 100 µM in assay [3] and above 100 µM in assay [4].
Regarding `Cc1cc2c(cc1Cl)Sc1n[nH]c(=O)n1S2(=O)=O`, the concentration for total growth inhibition (TGI) in assay [1], in assay [2], in assay [4] and in assay [5] was above 100 µM in each case.
Regarding `CC(C)(C)OC(=O)NC(Cc1ccc(OCc2ccccc2)cc1)C(=O)NC(CCCCNC(=O)OCc1ccccc1)C(=O)NC(CCCCNC(=O)OCc1ccccc1)C(=O)ON1C(=O)CCC1=O` (centres undefined) (Boc-Tyr(Bn)-Lys(Cbz)-Lys(Cbz)-OSu; configuration not given here), the TGI in assay [3] is above 100 µM; in assay [4], above 100 µM; in assay [5] it was 33.2 µM.
With `CC(C)=CCCC1(C)C2COC(=O)C21` (centres undefined), the GI50 in assay [1] is 43.3 µM and 18.8 µM. For the same compound, the TGI was > 100 µM and 40.9 µM in assay [1]; above 100 µM in assay [2]; above 100 µM in assay [5].
Consider `C=CCN1C(=O)CC(=O)N(NC2=NNC3(C(=O)N2)c2ccccc2-c2ccccc23)C1=S`, for which the concentration for total growth inhibition (TGI) in assay [1] was 66.2 µM; in assay [2], above 100 µM; in assay [4], above 100 µM; in assay [5], above 100 µM.
Turning to `CN(/N=C\c1ccc2ccccc2c1)C1=NCCCN1`, the TGI in assay [1] was 37.4 µM; in assay [2], 27.2 µM; in assay [3], above 100 µM; in assay [4], 74.4 µM.
In the case of `O=C(NCc1ccccc1Cl)c1c(O)c2ccccc2[nH]c1=O`, the concentration for total growth inhibition (TGI) in assay [1] is above 100 µM; in assay [2], 64.3 µM; in assay [4] it was 56.6 µM; in assay [5], above 100 µM.
Regarding `CC(=O)C(C(C)=O)[C@H]1OC(C)(C)O[C@H]1[C@H]1COC(C)(C)O1`, the TGI in assay [2] is above 100 µM; in assay [3], above 100 µM; in assay [4], above 100 µM; in assay [5], 90.5 µM.
For `CCOC(=O)c1c(-c2ccccc2)c(C)cn1C`, the TGI in assay [4] and in assay [5] was above 10 µM each time.
On to `C=CCOC(=O)N1c2ccc(O)cc2[C@@]23O[C@@]24[C@@H]1C#C/C=C\C#C[C@]3(O)C(=O)C[C@@H]4C`, for which the TGI in assay [1], in assay [2], in assay [3] and in assay [4] was above 100 µM throughout.
For `c1cc2c(cc1[C@@H]1OC[C@@H]3[C@H]1CO[C@H]3c1ccc3c(c1)OCO3)OCO2`, the TGI in assay [1], in assay [2], in assay [3] and in assay [4] was above 100 µM each time.
`Cc1ncc(CSC(=N)N)n1Cc1ccccc1`: the TGI in assay [2], in assay [3], in assay [4] and in assay [5] was above 100 µM throughout.
For `O=C1c2ccccc2C(=O)c2sc(Nc3cc(Cl)ccc3Cl)nc21`, the TGI in assay [1] was 4.89 µM; in assay [2], above 22.2 µM; in assay [3] it was 34.3 µM; in assay [4] it was 7.31 µM.
For `Cn1c(=O)c2c(nc(N/N=C3/SCC(=O)N3Cc3ccccc3)n2C)n(C)c1=O`, the TGI in assay [3], in assay [4] and in assay [5] was above 100 µM in each case.
